Values joined by “and” are separate entries in the source; they are usually repeats but may differ in a detail not shown here. Identical values can stand only once. Toxic doses and inconclusive results are not listed. No stated cut-off is given here; in the data, active means T/C of 150% or more; inactive means T/C below 125%.
Tested on: L1210 leukemia ip in BDF1 mice, survival T/C
Test: NCI In Vivo Anticancer Drug Screen. Data for tumor model L1210 Leukemia (intraperitoneal) in B6D2F1 (BDF1) mice
Details: endpoint: mean survival time, higher = longer survival
Method in brief: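 Mice bearing the transplanted tumor received compound or vehicle. Survival of the treated group was divided by that of the vehicle-treated control group to give the ratio.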

[1] = dose: 100.0 mg/kg/injection, schedule: Q01DX001 (ip), vehicle: saline
[2] = dose: 200.0 mg/kg/injection, schedule: Q01DX001 (ip), vehicle: saline
[3] = dose: 400.0 mg/kg/injection, schedule: Q01DX001 (ip), vehicle: saline
[4] = dose: 6.25 mg/kg/injection, schedule: Q01DX009 (ip), vehicle: Klucel (hydroxypropylcellulose) (HPC)
[5] = dose: 12.5 mg/kg/injection, schedule: Q01DX009 (ip), vehicle: Klucel (hydroxypropylcellulose) (HPC)
[6] = dose: 25.0 mg/kg/injection, schedule: Q01DX009 (ip), vehicle: Klucel (hydroxypropylcellulose) (HPC)
[7] = dose: 25.0 mg/kg/injection, schedule: Q04DX003 (ip), vehicle: Klucel (hydroxypropylcellulose) (HPC)
[8] = dose: 100.0 mg/kg/injection, schedule: Q01DX009 (ip), vehicle: Klucel (hydroxypropylcellulose) (HPC)
[9] = dose: 100.0 mg/kg/injection, schedule: Q04DX003 (ip), vehicle: saline

Measured: T/C

CCC(CO)N=Cc1ccccc1O.CCC(CO)N=Cc1ccccc1O.[Ni] (stereo unspecified)
inactive: dose: 9.5 mg/kg/injection, schedule: Q01DX001 (ip), vehicle: other 102 % of control | dose: 19.0 mg/kg/injection, schedule: Q01DX001 (ip), vehicle: other 102 % of control | dose: 38.0 mg/kg/injection, schedule: Q01DX001 (ip), vehicle: other 94 % of control | dose: 75.0 mg/kg/injection, schedule: Q01DX001 (ip), vehicle: other 111 % of control

CCOP(=O)(OCCBr)C(c1ccccc1)(c1ccccc1)c1ccccc1 (stereo unspecified)
inactive: dose: 100.0 mg/kg/injection, schedule: Q04DX002 (ip), vehicle: Klucel (hydroxypropylcellulose) (HPC) 89 % of control | dose: 200.0 mg/kg/injection, schedule: Q04DX002 (ip), vehicle: Klucel (hydroxypropylcellulose) (HPC) 92 % of control | dose: 400.0 mg/kg/injection, schedule: Q04DX002 (ip), vehicle: Klucel (hydroxypropylcellulose) (HPC) 92 % of control

O=S(=O)(O)CCS
inactive: [1] 94 % of control | [2] 105 % of control | [3] 100 % of control

Nc1ncnc2nc(-c3ccc(Cl)c(Cl)c3)[nH]c12
inactive: dose: 37.5 mg/kg/injection, schedule: Q01DX001 (ip), vehicle: saline with Tween-80 93 % of control | dose: 75.0 mg/kg/injection, schedule: Q01DX001 (ip), vehicle: saline with Tween-80 87 % of control | dose: 150.0 mg/kg/injection, schedule: Q01DX001 (ip), vehicle: saline with Tween-80 87 % of control

C/C(=C\Cl)COC(C)(C)C
inactive: dose: 100.0 mg/kg/injection, schedule: Q01DX001 (ip), vehicle: saline with Tween-80 94 % of control | dose: 200.0 mg/kg/injection, schedule: Q01DX001 (ip), vehicle: saline with Tween-80 94 % of control

CNCc1ccccc1C(O)c1ccc(Cl)cc1 (stereo unspecified)
inactive: dose: 3.12 mg/kg/injection, schedule: Q01DX009 (ip), vehicle: Klucel (hydroxypropylcellulose) (HPC) 98 % of control | [4] 96 % of control | [5] 96 % of control | [6] 94 % of control | [7] 97 % of control and 98 % of control | dose: 50.0 mg/kg/injection, schedule: Q01DX009 (ip), vehicle: Klucel (hydroxypropylcellulose) (HPC) 102 % of control | dose: 50.0 mg/kg/injection, schedule: Q04DX003 (ip), vehicle: Klucel (hydroxypropylcellulose) (HPC) 94 % of control | [8] 86 % of control | dose: 100.0 mg/kg/injection, schedule: Q04DX003 (ip), vehicle: Klucel (hydroxypropylcellulose) (HPC) 104 % of control | dose: 200.0 mg/kg/injection, schedule: Q04DX003 (ip), vehicle: Klucel (hydroxypropylcellulose) (HPC) 122 % of control

CCC(=O)/C(=C\c1ccccc1Cl)C(C)=O
inactive: dose: 100.0 mg/kg/injection, schedule: Q04DX003 (ip), vehicle: saline with Tween-80 111 % of control | dose: 200.0 mg/kg/injection, schedule: Q04DX003 (ip), vehicle: saline with Tween-80 117 % of control | dose: 400.0 mg/kg/injection, schedule: Q04DX003 (ip), vehicle: saline with Tween-80 93 % of control

CC1(C)C(O)(C#N)C(C)(C)C1(O)C#N (stereo unspecified)
inactive: dose: 3.13 mg/kg/injection, schedule: Q01DX009 (ip), vehicle: saline 107 % of control | dose: 6.25 mg/kg/injection, schedule: Q01DX009 (ip), vehicle: saline 115 % of control | dose: 12.5 mg/kg/injection, schedule: Q01DX009 (ip), vehicle: saline 105 % of control

CS(=O)(=O)OCCC(=O)NCCCCNC(=O)CCOS(C)(=O)=O
inactive: [1] 104 % of control | [9] 115 % of control | [2] 117 % of control | dose: 264.0 mg/kg/injection, schedule: Q01DX001 (ip), vehicle: saline 103 % of control and 121 % of control | dose: 264.0 mg/kg/injection, schedule: Q01DX009 (ip), vehicle: saline 113 % of control | [3] 97 % of control | dose: 400.0 mg/kg/injection, schedule: Q01DX009 (ip), vehicle: saline with Tween-80 122 % of control | dose: 400.0 mg/kg/injection, schedule: Q01DX009 (ip), vehicle: saline 112 % of control

CC1(C)NC(=O)N(CN2CCN(CN3C(=O)NC(C)(C)C3=O)CC2)C1=O
inactive: [9] 108 % of control | dose: 200.0 mg/kg/injection, schedule: Q04DX003 (ip), vehicle: saline 108 % of control | dose: 400.0 mg/kg/injection, schedule: Q04DX003 (ip), vehicle: saline 113 % of control

CC(C)(CO)N=Cc1cc([N+](=O)[O-])ccc1O
inactive: [1] 110 % of control | [2] 107 % of control | [3] 110 % of control

OC1C(Cl)(Cl)CCCC1(Cl)Cl
inactive: dose: 50.0 mg/kg/injection, schedule: Q01DX009 (ip), vehicle: saline with Tween-80 90 % of control | dose: 100.0 mg/kg/injection, schedule: Q01DX009 (ip), vehicle: saline with Tween-80 94 % of control | dose: 200.0 mg/kg/injection, schedule: Q01DX009 (ip), vehicle: saline with Tween-80 98 % of control

CCCCCCC(O)CCc1ccccc1 (stereo unspecified)
inactive: [8] 103 % of control | dose: 200.0 mg/kg/injection, schedule: Q01DX009 (ip), vehicle: Klucel (hydroxypropylcellulose) (HPC) 102 % of control | dose: 400.0 mg/kg/injection, schedule: Q01DX009 (ip), vehicle: Klucel (hydroxypropylcellulose) (HPC) 113 % of control

CO[C@@H]1[C@@H](OC2OC(C)C(OC3CC(C)(O)C(OC(=O)CC(C)C)C(C)O3)C(N(C)C)C2O)[C@@H](CC=O)C[C@@H](C)C(=O)/C=C/C2O[C@H]2C[C@@H](C)OC(=O)C[C@H]1OC(C)=O (stereo partly specified)
inactive: dose: 50.0 mg/kg/injection, schedule: Q01DX Z (ip), vehicle: other 103 % of control | dose: 100.0 mg/kg/injection, schedule: Q01DX001 (ip), vehicle: water 108 % of control | dose: 100.0 mg/kg/injection, schedule: Q01DX015 (ip), vehicle: water 102 % of control | dose: 100.0 mg/kg/injection, schedule: Q01DX Z (ip), vehicle: other 110 % of control | dose: 100.0 mg/kg/injection, schedule: Q#A X030 (ip), vehicle: water 108 % of control and 92 % of control | dose: 150.0 mg/kg/injection, schedule: Q01DX Z (ip), vehicle: other 105 % of control | dose: 150.0 mg/kg/injection, schedule: Q#A X030 (ip), vehicle: water 97 % of control | dose: 200.0 mg/kg/injection, schedule: Q01DX001 (ip), vehicle: water 106 % of control | dose: 200.0 mg/kg/injection, schedule: Q01DX015 (ip), vehicle: water 118 % of control | dose: 200.0 mg/kg/injection, schedule: Q01DX Z (ip), vehicle: methylcellulose (MC) 118 % of control | dose: 200.0 mg/kg/injection, schedule: Q01DX Z (ip), vehicle: other 105 % of control | dose: 200.0 mg/kg/injection, schedule: Q#A X030 (ip), vehicle: water 118 % of control | dose: 250.0 mg/kg/injection, schedule: Q01DX Z (ip), vehicle: methylcellulose (MC) 118 % of control | dose: 250.0 mg/kg/injection, schedule: Q01DX Z (ip), vehicle: other 115 % of control | dose: 300.0 mg/kg/injection, schedule: Q01DX015 (ip), vehicle: water 101 % of control and 118 % of control | dose: 300.0 mg/kg/injection, schedule: Q01DX Z (ip), vehicle: methylcellulose (MC) 116 % of control | dose: 350.0 mg/kg/injection, schedule: Q01DX Z (ip), vehicle: methylcellulose (MC) 116 % of control | dose: 400.0 mg/kg/injection, schedule: Q01DX001 (ip), vehicle: water 101 % of control | dose: 400.0 mg/kg/injection, schedule: Q01DX015 (ip), vehicle: water 87 % of control | dose: 600.0 mg/kg/injection, schedule: Q01DX001 (ip), vehicle: water 110 % of control

CCOc1ccccc1/C=N\N=C(N/N=C/c1ccccc1OCC)N/N=C/c1ccccc1OCC
inactive: dose: 60.0 mg/kg/injection, schedule: Q01DX Z (oral), vehicle: saline 91 % of control | dose: 120.0 mg/kg/injection, schedule: Q01DX Z (oral), vehicle: saline 100 % of control | dose: 240.0 mg/kg/injection, schedule: Q01DX Z (oral), vehicle: saline 95 % of control | dose: 480.0 mg/kg/injection, schedule: Q01DX Z (oral), vehicle: saline 95 % of control

O=C(Nc1ncc([N+](=O)[O-])s1)c1cccc([N+](=O)[O-])c1
inactive: [4] 92 % of control | dose: 6.25 mg/kg/injection, schedule: Q04DX003 (ip), vehicle: Klucel (hydroxypropylcellulose) (HPC) 105 % of control | [5] 100 % of control | dose: 12.5 mg/kg/injection, schedule: Q04DX003 (ip), vehicle: Klucel (hydroxypropylcellulose) (HPC) 102 % of control | [6] 89 % of control | [7] 102 % of control

Source: PubChem BioAssay AID248 (DTP/NCI, 2004)
